Tested on: Candida albicans biofilms
Assay: Biofilm inhibitory activity by confocal laser scanning microscopy (SYTO 9 / PI staining)
Type: cell-based
Settings: 5 minutes treatment, 1.2 mM each component
Experimental: Candida albicans biofilms were formed on a stainless-steel coupon. Specifically, the […] were immersed in 90% (v/v) ethanol for 30 minutes for decontamination of stainless-steel coupons (1.5×1.0 cm2) and washed with sterile distilled water. Then, stainless-steel coupons were placed in a 12-well tissue culture plate containing 4.95 mL of SDB enrichment medium, and 50 uL of the mixed suspensions of albicans were dispensed and cultured at 30° C. for 48 hours to form Candida albicans biofilms. After forming the biofilm on each coupon, weakly attached cells, not the biofilm, were separated using 0.85% sterile physiological saline.
The antifungal activity of the antimicrobial mixture of the present disclosure was confirmed through confocal laser scanning microscopy analysis. For the biofilms of Candida species treated with each antimicrobial mixture, intact cells were stained with green fluorescent SYTO®9 (S-34854, Molecular Probes™, Thermo Fisher Scientific Inc., Pittsburgh, PA, USA; final concentration: 6.7 μM; excitation: 488 nm, emission: 498/501 nm), and damaged cells were detected by staining with red fluorescent propidium iodide (PI; P3566, Molecular Probes™; final concentration: 15 μM; excitation: 555 nm, emission: 617 nm). […]

**Q.** Which “damage to the fungal cell membrane in the biofilms (SYTO 9 green / PI red fluorescence)” value (5° C., FIGS. 4A-4F) does the source give for CC(O)CO (centres unmarked) [compound 2, propylene glycol] here?
**A.** Its value is “did not show significant damage to the fungal cell membrane”.

**Q.** And the “damage to the fungal cell membrane in the biofilms (SYTO 9 green / PI red fluorescence)” value (22° C., FIGS. 5A-5F)?
**A.** Its value is “did not show significant damage to the fungal cell membrane”.

From US12250946B2, “Antifungal composition having excellent antifungal activity even at low temperature” (Korea University Research and Business Foundation, priority 2020, dated 2025)
